In brackets after ≈: the same amount, converted by molar mass.
How the values were obtained:
[1] = tested on: MDR-MTB (Multidrug-resistant Mycobacterium tuberculosis); assay: microbe, parasite or virus in culture; assay type: cell-based; conditions: 192 h, read-out: MIC (μg/mL) MDR-MTB
[2] = tested on: XDR-MTB (Extensively drug-resistant Mycobacterium tuberculosis); assay: microbe, parasite or virus in culture; assay type: cell-based; conditions: 192 h, read-out: MIC (μg/mL) XDR-MTB

Row | SMILES | MIC [1] [µg/mL] | MIC [2] [µg/mL]
1 | CCOC(=O)c1cc(C(=O)c2ccc(F)cc2)n2ccc(C(=O)OC(C)C)cc12 [KNV-4, 1-Ethyl 7-isopropyl 3-(4-fluorobenzoyl)indolizine-1,7-dicarboxylate] | 4 (≈ 10.1 µM) | 32 (≈ 80.5 µM)
2 | COC(=O)c1c(C(=O)OC)c2cc(C(=O)OC(C)C)ccn2c1C(=O)c1ccc(Br)cc1 [KNV-7, 7-Isopropyl 1,2-dimethyl 3-(4-bromobenzoyl)indolizine-1,2,7-tricarboxylate] | 8 (≈ 15.9 µM) | 8 (≈ 15.9 µM)

Source: patent publication US11807640B1 (priority 2023, dated 2023)
